# Measured values from patent publication US5827837A, “Polyanion anti-inflammatory agents” (priority 1996, dated 1998).
# Assays:
# [1] = test system: PMN within the peritoneal cavity; test: Zymosan-induced peritoneal inflammation, PMN accumulation; type: in vivo, mice (Balb/c); conditions: mice
# Method: Mice (Balb/c males, 4-5 weeks old, 20-24 grams) were injected i.p. with 1 ml of 3% thioglycollate broth (lot #622462, Clinical Standard Laboratories, Inc., Rancho Dominguez, Calif.) left panel, or 0.5 mg of zymosan (Sigma) in 1 ml of sterile, pyrogen-free saline (Abbott Laboratories, North Chicago, Ill.), (FIG. 4, right panel). Control animals were injected i.p. with 1 ml of sterile pyrogen-free saline. After 40 and 80 min the animals received i.v. injections of 0.2 ml of sterile saline with or without InsP6 (total of 80 μmol/kg) or inositol (400 μmol/kg). Mice were sacrificed at 120 min and PMN within the peritoneal cavity were collected by lavage with 10 ml of ice-cold PBS containing 10 U/ml of heparin. After red blood cell lysis, the cells were counted in a hemocytometer (2 separate counts per sample, in triplicate). The percentage of PMN was assessed by counting cytospin preparations (two counts per slide, 300 cells per count) stained with Dif-Quick stain (Baxter, McGaw Park, Ill). Data are expressed as the mean ±s.d. of three separate experiments, with 5-6 animals per group in each experiment except for the group injected with saline i.p. that was constituted by 2 animal per experiment. […]
# [2] = Toxic effects after injection, applicant's studies; type: in vivo
# P-selectin (P-COS) = test: LS 180 cell adhesion to COS cells transfected with full length P-selectin (P-COS); type: cell-based; conditions: 0.5 mM, 2 experiments
# Method: (§1) The effect of inositols on selectin-dependent cell adhesion was assessed using several in vitro assay systems. In the first, a colon cancer cell line, LS 180, was chosen because it binds to all three selecting.
# (§2) COS-1 cells were transfected as described (Seed, B., et al., Proc. Natl. Acad. Sci., U.S.A., 84:3365, 1987; Aruffo, A., Current Protocols In Molecular Biology, eds. supra, 1992) with pCDM7/pCDM8 expression vectors containing the full-length E-, P- and L-selectin cDNA. Transfected COS-1 cells were seeded on gelatin coated coverslips.
# hemoglobin = conditions: in vitro; cited from earlier work
# [3] = test system: PMN recovered in broncho-alveolar lavage fluid; test: Lung inflammation by intratracheal instillation of endotoxin, PMN in broncho-alveolar lavage fluid; type: in vivo; conditions: rat, i.v. at 2 and 4 hours, 40 μmol/kg total, at 6 hours, 2 experiments
# Source text: (§3) In the first model, mice were given intraperitoneal (i.p.) injections of 3% thioglycollate broth (FIG. 4, left panel) which results in an accumulation of PMN, the early phase of which is thought to depend in large part on L-(Lewinsohn, D. M., et al., J. Immunol., 138:4313, 1987; Watson, S. R., et al., Nature, 349:164, 1991), and P-selectin (Mulligan, M. S., et al., J. Clin. Invest., 90:1600, 1992). […] In a rat model of lung inflammation involving intratracheal instillation of endotoxin (Ulich, T. R., et al., Am. J. Pathol, 138:1485, 1991), InsP6 (i.v. injections at 2 and 4 hours, 40 μmol/kg total) reduced the number of PMN recovered in broncho-alveolar lavage fluid at 6 hours (59±8% inhibition, 2 experiments). The number of peripheral blood PMN was not modified by InsP6 treatment.
# E-selectin (E-COS) = test: LS 180 cell adhesion to COS cells transfected with full length E-selectin (E-COS); type: cell-based; conditions: 0.5 mM
# Method: as §1, §2
# [4] = mice and rats, high-dose (^18 600 μmol/kg), rate 60 μmol/kg/min or higher; cited from earlier work
# [5] = Ca^2+; read-out: Kd, calcium binding; cited from earlier work
# neutrophils = conditions: cited from earlier work
# peripheral blood PMN = test: Number of peripheral blood PMN; conditions: in vivo
# Source text: as §3
# L-selectin (L-COS) = test: LS 180 cell adhesion to COS cells transfected with full length L-selectin (L-COS); type: cell-based; conditions: 0.5 mM, 2 experiments
# Method: as §1, §2
# [6] = molecular target: T1, E-selectin-lg fusion protein (Homo sapiens, UniProt P16581); test: LS 180 colon cancer cell adhesion to immobilized E-selectin-Ig; type: cell-based
# T1 construct: Each selectin-lg contains the lectin domain, epidermal growth factor domain, and one (L-selectin-lg), two (P-selectin-lg) or six (E-selectin-lg) complement regulatory repeats; made in house
# T1 sequence (P16581 with tags, fused parts or gaps limits assumed): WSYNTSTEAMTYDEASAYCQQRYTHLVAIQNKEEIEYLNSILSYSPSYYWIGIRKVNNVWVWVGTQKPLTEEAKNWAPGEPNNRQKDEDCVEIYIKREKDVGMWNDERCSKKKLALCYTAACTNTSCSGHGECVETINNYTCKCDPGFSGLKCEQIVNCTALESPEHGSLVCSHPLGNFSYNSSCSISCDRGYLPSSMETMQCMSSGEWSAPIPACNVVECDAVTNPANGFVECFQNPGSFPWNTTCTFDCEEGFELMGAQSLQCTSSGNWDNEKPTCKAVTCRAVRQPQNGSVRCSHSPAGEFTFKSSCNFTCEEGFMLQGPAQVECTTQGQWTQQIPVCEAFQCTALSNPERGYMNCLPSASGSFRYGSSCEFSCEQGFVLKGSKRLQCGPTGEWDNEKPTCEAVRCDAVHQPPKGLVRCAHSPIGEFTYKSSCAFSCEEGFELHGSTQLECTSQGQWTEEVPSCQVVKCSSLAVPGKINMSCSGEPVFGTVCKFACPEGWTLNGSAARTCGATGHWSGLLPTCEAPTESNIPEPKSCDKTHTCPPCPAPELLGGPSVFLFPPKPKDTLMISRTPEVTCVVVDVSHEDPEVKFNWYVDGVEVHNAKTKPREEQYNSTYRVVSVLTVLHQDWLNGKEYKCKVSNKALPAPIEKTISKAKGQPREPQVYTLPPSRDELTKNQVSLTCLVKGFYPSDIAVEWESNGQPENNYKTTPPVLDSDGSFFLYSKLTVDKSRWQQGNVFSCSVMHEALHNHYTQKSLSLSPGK
# Method: Cell adhesion assays on immobilized selectin-lg were performed essentially as described (Nelson, R. M., et al., J. Clin. Invest., 91:1157, 1993; Nelson, R. M., et al., Symposia on Quant. Biol., 57:271, 1992). Briefly, Nunclon Terasaki Microwell plates were coated overnight with 5 μl/well of a 5 μg/ml solution of protein A (Chemicon, Temecula, Calif.) in 50 mM carbonate buffer, pH 9.5. Protein-A-coated plates were washed with Dulbecco's phosphate buffered saline (PBS), incubated for 1 hour with L-, P-, or E-selectin-lg fusion proteins in PBS (5-20 μg/ml), washed again, and blocked with PBS containing 1% human serum albumin (HSA). […] After washing to remove unbound cells, adherent cells were fixed with glutaraldehyde (2.5% in PBS) and counted. Symbols and error bars represent mean number of adherent cells/mm^2 ±s.e.m., counted in quadruplicate wells in a single experiment representative of three. No LS 180 cell adhesion was detected on plates coated with protein A alone, or on plates coated with protein A-captured CD8-lg fusion protein.
# LS 180 cells (ATCC, Rockville, Md.) were added to cell culture wells containing protein A-captured selectin-lg fusion proteins and incubated for 30 min at 4° C. to allow adhesion. The plates were washed to remove unbound cells and adherent cells were counted microscopically. […]
Structure (SMILES),"inhibition of PMN accumulation, zymosan model ([1]; 400 μmol/kg, 1 experiment) [%]","toxic effects at decreased infusion rate and lower doses ([2]; 40 μmol/kg, decreased rate of infusion)","duration of transient toxic effects ([2]; rapid i.v. (5-10 sec), >50 μmol/kg) [min]","toxic effects upon rapid i.v. injection ([2]; rapid i.v. (5-10 sec), concentrated solutions >50 μmol/kg)","harmful effect on repeated protocol ([2]; repeated multiple times in the same animal, 40 μmol/kg)","toxic effects, subcutaneous ([2]; s.c., doses up to 200 μmol/kg)",inhibition of LS 180 cell adhesion to P-COS (P-selectin (P-COS)) [%],allosteric regulation of mammalian hemoglobin (hemoglobin),inhibition of PMN recovered in broncho-alveolar lavage fluid [3] [%],inhibition of LS 180 cell adhesion to E-COS (E-selectin (E-COS)) [%],"acute toxic effects, i.v. infusion [4]",effect in zymosan-induced peritoneal inflammation ([1]; relative to thioglycollate model),Kd [5] [µM],effect on neutrophil responses to activating stimuli (neutrophils),number of peripheral blood PMN (peripheral blood PMN),inhibition of LS 180 cell adhesion to L-COS (L-selectin (L-COS)) [%],LS 180 adhesion to E-selectin-Ig [6]
"O=S(=O)(O)O[C@H]1[C@H](OS(=O)(=O)O)[C@@H](OS(=O)(=O)O)[C@H](OS(=O)(=O)O)[C@@H](OS(=O)(=O)O)[C@H]1OS(=O)(=O)O [InsS6, myo-inositol hexakissulfate]",31±11,,,,,,,,,,,,,,,,
"O=P(O)(O)O[C@H]1[C@H](OP(=O)(O)O)[C@@H](OP(=O)(O)O)[C@H](OP(=O)(O)O)[C@@H](OP(=O)(O)O)[C@H]1OP(=O)(O)O [InsP6, myo-inositol hexakisphosphate]",,These effects were avoided,1 to 3,"some transient (duration 1-3 min) toxic effects (unsteady gate, spasms)",without apparent harmful effect,no toxic effects were observed,95±5,effective allosteric regulator of mammalian hemoglobin in vitro,59±8,< 5,acute toxic effects,equally effective,~5,enhance their responses to activating stimuli,not modified,81±13,but not with E-selectin-lg
